From patent US20260028423A1, “PREDICTION OF AN INCREASE OF DPP3 IN A PATIENT WITH SEPTIC SHOCK” (4TEEN4 Pharmaceuticals GmbH, priority 2022, published 2026)
Entries after “also recorded” stand apart in the source; their conditions may differ. Where two headings read alike, the source gives them in different places.

What was measured:
[1] = tested on: patients with septic shock; assay: AdrenOSS-2 phase II trial in patients with septic shock and elevated adrenomedullin: mortality vs placebo; type: in vivo, human; details: for HR 28-day all-cause mortality: vs placebo
Description: AdrenOSS-2 is a double-blind, placebo-controlled, randomized, multicenter, proof of concept and dose-finding phase II clinical trial to investigate the safety, tolerability and efficacy of the N-terminal ADM antibody named Adrecizumab in patients with septic shock and elevated adrenomedullin (Geven et al. BMJ Open 2019; 9:e024475). In total, 301 patients with septic shock and bio-ADM concentration >[…] were randomized (2:1:1) to treatment with a single intravenous infusion over approximately 1 hour with either placebo (n=152), adrecizumab […]/kg (n=72) or adrecizumab […]/kg (n=77). All-cause mortality within 28 (90) days after inclusion was 25.8% (34.8%). Mean age was 68.4 years and 61% were male. For the per protocol analysis, n=294 patients remained eligible, and 14-day all-cause mortality rate was 18.5%.
To validate the findings from example 9 and for proof of concept, the different lower thresholds for DPP3 at baseline (day 1) were assessed for efficacy of the anti-ADM antibody (Adrecizumab) therapy in the septic shock population with high bio-ADM from the AdrenOSS-2 study cohort and patients with a DPP3 plasma value above the different lower thresholds were excluded from the analyses. Efficacy of the anti-ADM antibody therapy was specifically assessed to what concerns the mortality endpoint in the placebo and treated arms.
The DPP3 plasma levels in septic shock with high bio-ADM (above […]) patients (n=298) at baseline and in the following 144 h were statistically analysed with the aim of determining a DPP3 threshold at baseline to assess anti-ADM antibody therapy efficacy. Patients above the respective DPP3 plasma thresholds were excluded from the analyses. Different DPP3 plasma concentration thresholds have been applied for 28-day all-cause mortality evaluation using Kaplan-Meier plots comparing anti-ADM antibody therapy vs. placebo. The log-rank test was chosen for showing differences in mortality rates among treatment groups. Hazard ratios (HR) were calculated for each DPP3 plasma concentration threshold to estimate the reduction in mortality risk imposed by anti-ADM antibody therapy relative to placebo.

endotoxemic rats = details: pre-treatment; cited from earlier work
[2] = tested on: mice with CLP-induced sepsis; details: pre-treatment, cited from earlier work
[3] = tested on: patients with septic shock; assay: AdrenOSS-2 phase II trial in patients with septic shock and elevated adrenomedullin: mortality vs placebo; type: in vivo, human
[4] = phase I study; cited from earlier work
DPP3 = biological target: T1, DPP3 (Homo sapiens, UniProt Q9NY33); assay: Western Blot analysis of binding specificity in blood cell lysate; details: AK1967 as primary antibody
T1 construct: from tissue; host or cells: lysate of blood cells from human EDTA-blood
T1 sequence (Q9NY33 1-737): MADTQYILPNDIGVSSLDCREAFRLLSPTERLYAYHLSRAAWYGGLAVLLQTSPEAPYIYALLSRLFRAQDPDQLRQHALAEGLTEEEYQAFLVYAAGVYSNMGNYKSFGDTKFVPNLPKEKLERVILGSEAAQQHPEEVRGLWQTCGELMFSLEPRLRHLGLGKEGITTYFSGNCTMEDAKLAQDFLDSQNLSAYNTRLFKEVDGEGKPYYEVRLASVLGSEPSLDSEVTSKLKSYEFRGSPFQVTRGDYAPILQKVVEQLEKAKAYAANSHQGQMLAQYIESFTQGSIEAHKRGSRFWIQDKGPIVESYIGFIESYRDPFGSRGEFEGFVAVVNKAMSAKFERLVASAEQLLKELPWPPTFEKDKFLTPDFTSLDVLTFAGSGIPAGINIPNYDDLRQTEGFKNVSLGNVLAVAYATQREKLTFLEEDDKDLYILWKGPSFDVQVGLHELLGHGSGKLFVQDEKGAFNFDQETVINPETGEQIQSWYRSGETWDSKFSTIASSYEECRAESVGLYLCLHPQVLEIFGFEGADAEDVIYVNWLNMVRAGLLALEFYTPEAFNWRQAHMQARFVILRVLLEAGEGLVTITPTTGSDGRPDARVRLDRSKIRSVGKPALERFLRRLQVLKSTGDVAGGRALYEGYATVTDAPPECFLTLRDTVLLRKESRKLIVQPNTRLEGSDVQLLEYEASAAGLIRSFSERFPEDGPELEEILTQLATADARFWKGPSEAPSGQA
Description: Blood cells from human EDTA-blood were washed (3× in PBS), diluted in PBS and lysed by repeated freeze-thaw-cycles. […] Dilutions of blood cell lysate (1:40, 1:80, 1:160 and 1:320) and of purified recombinant human His-DPP3 (31.25-500 ng/ml) were subjected to SDS-PAGE and Western Blot. The blots were incubated in 1.) blocking buffer (1×PBS-T with 5% skim milk powder), 2.) primary antibody solution (AK1967 1:2.000 in blocking buffer) and 3.) HRP labelled secondary antibody (goat anti mouse IgG, 1:1.000 in blocking buffer). Bound secondary antibody was detected using the Amersham ECL Western Blotting Detection Reagent and the Amersham Imager 600 UV (both from GE Healthcare).

[5] = biological target: T2, Recombinant GST-tagged hDPP3 (Homo sapiens, UniProt Q9NY33); assay: hDPP3 inhibition analysis (DPP3 activity assay, Arg-Arg-βNA); type: biochemical; details: 25 ng/ml GST-DPP3, 10 μg antibody
T2 construct: purchased USBio (United States Biological, Salem, MA, USA)
T2 sequence (Q9NY33 1-737): T1 sequence (Q9NY33 1-737)
Description: To analyze the capability of DPP3 inhibition by the different antibodies and antibody clones a DPP3 activity assay with known procedure (Jones et al., 1982) was performed. Recombinant GST-tagged hDPP3 was diluted in assay buffer (25 ng/ml GST-DPP3 in 50 mM Tris-HCl, pH7,5 and 100 μM ZnCl2) and 200 μl of this solution incubated with 10 μg of the respective antibody at room temperature. After 1 hour of pre-incubation, fluorogenic substrate Arg-Arg-βNA (20 μl, 2 mM) was added to the solution and the generation of free βNA over time was monitored using the Twinkle LB 970 microplate fluorometer (Berthold Technologies GmbH & Co. KG) at 37° C. Fluorescence of βNA is detected by exciting at 340 nm and measuring emission at 410 nm. Slopes (in RFU/min) of increasing fluorescence of the different samples are calculated. The slope of GST-hDPP3 with buffer control is appointed as 100% activity. The inhibitory ability of a possible capture-binder is defined as the decrease of GST-hDPP3 activity by incubation with said capture-binder in percent.

Male Wistar rats = assay: CLP model of septic shock, sepsis-induced heart failure rats; type: in vivo, rat; details: vs CLP+PBS
Description: Male Wistar rats (2-3 months, 300 to 400 g, group size refers to table 9) from the Centre d'élevage Janvier (France) were allocated randomly to one of three groups. All the animals were anesthetized using ketamine hydrochloride (90 mg/kg) and xylazine (9 mg/kg) intraperitoneally (i.p.). For induction of polymicrobial sepsis, cecal ligation and puncture (CLP) was performed using Rittirsch's protocol with minor modification. A ventral midline incision (1.5 cm) was made to allow exteriorization of the cecum. The cecum is then ligated just below the ileocecal valve and punctured once with an 18-gauge needle. The abdominal cavity is then closed in two layers, followed by fluid resuscitation (3 ml/100 g body of weight of saline injected subcutaneously) and returning the animal to its cage. Sham animals were subjected to surgery, without getting their cecum punctured. CLP animals were randomized between placebo and therapeutic antibody.
The study flow is depicted in FIG. 8. After CLP or sham surgery the animals were allowed to rest for 20 hours with free access to water and food. […] As a safety measure, hemodynamics were monitored invasively and continuously from t=0 till 3 h. […]
Grey scale images were recorded at a depth of 2 cm. […] LVFS was calculated as LV end-diastolic diameter−LV end-systolic diameter/LV end-diastolic diameter and expressed in %. […] All parameters were measured manually. […]

[6] = biological target: T2, Recombinant GST-tagged hDPP3; assay: hDPP3 binding assay (labelled antibody, immobilized antigen, RLU); details: immobilized GST-hDPP3 1 μg/well
Description: To analyze the capability of DPP3/immunization peptide binding by the different antibodies and antibody clones a binding assay was performed:
Solid phase: Recombinant GST-tagged hDPP3 (SEQ ID NO. 36) or a DPP3 peptide (immunization peptide, SEQ ID NO. 37) was immobilized onto a high binding microtiter plate surface (96-Well polystyrene microplates, Greiner Bio-One international AG, Austria, 1 μg/well in coupling buffer [50 mM Tris, 100 mM NaCl, pH7,8], 1 h at RT). After blocking with 5% bovine serum albumin, the microplates were vacuum dried.
Labelling procedure (tracer): 100 μg (100 μl) of the different antiDPP3 antibodies (detection antibody, 1 mg/ml in PBS, pH 7.4) were mixed with 10 μl acridinium NHS-ester (1 mg/ml in acetonitrile, InVent GmbH, Germany; EP 0 353 971) and incubated for 30 min at room temperature. […] The final concentration was approx. 5-7*10^6 relative light units (RLU) of labelled compound (approx. 20 ng labelled antibody) per 200 μl. acridinium ester chemiluminescence was measured by using a Centro LB 960 luminometer (Berthold Technologies GmbH & Co. KG).
hDPP3 binding assay: the plates were filled with 200 μl of labelled and diluted detection antibody (tracer) and incubated for 2-4 h at 2-8° C. […] Well-bound chemiluminescence was measured by using the Centro LB 960 luminometer (Berthold Technologies GmbH & Co. KG).

[7] = tested on: isoproterenol-induced heart failure mice; assay: Isoproterenol-induced heart failure in mice; type: in vivo, mouse; details: 10 mg/kg i.v.; within the first hour after administration
Description: Acute heart failure was induced in male mice at 3 months of age by two daily subcutaneous injections of 300 mg/kg of Isoproterenol, a non-selective β-adrenergic agonist (DL-Isoproterenol hydrochloride, Sigma Chemical Co) (ISO) for two days (Vergaro et al, 2016). The ISO dilution was performed in NaCl 0.9%. Isoproterenol-treated mice were randomly assigned to two groups (Table 10) and PBS or Procizumab (10 mg/kg) were injected intravenously after baseline echocardiography (Gao et al., 2011) and renal resistive index measurements (Lubas et al., 2014, Dewitte et al, 2012) were performed at day 3 (FIGS. 11 A and B). Cardiac function was assessed by echocardiography (Gao et al., 2011) and by the renal resistive index (Lubas et al., 2014, Dewitte et al, 2012) at 1 hour, 6 hours and 24 hours (FIGS. 11 A and B). The group of mice that was injected with vehicle (PBS) instead of isoproterenol was subjected to no further pharmacological treatment and served as the control group (Table 10).

[8] = biological target: T3, native DPP3 from blood cells (Homo sapiens, UniProt Q9NY33); assay: DPP3 inhibition curve (FIG. 7); type: biochemical; details: against 15 ng/ml DPP3
T3 construct: from tissue; host or cells: blood cells
T3 sequence (Q9NY33 1-737): T1 sequence (Q9NY33 1-737)

Adrecizumab: humanized N-terminal anti-ADM antibody; heavy chain SEQ ID NO: 32, light chain SEQ ID NO: 33
28-day all-cause mortality compared to the placebo arm ([1]; DPP3 below 30 ng/ml (n=195)): significantly reduced | 28-day all-cause mortality compared to the placebo arm ([1]; DPP3 below 50 ng/ml): lower than the placebo arm | 28-day all-cause mortality compared to the placebo arm ([1]; DPP3 below 50 ng/ml at baseline and continuously low (<50 ng/ml) during the next 144 h): significantly lower | HR 28-day all-cause mortality ([1]; baseline DPP3 threshold 22 ng/ml): 0.258 | HR 28-day all-cause mortality ([1]; baseline DPP3 threshold 30 ng/ml): 0.309 | HR 28-day all-cause mortality ([1]; baseline DPP3 threshold 40 ng/ml): 0.568 | renal vascular leakage (endotoxemic rats): attenuated | 7-day survival ([2]; repeated dose administration, control 0%): 40% | 7-day survival ([2]; single dose, control 10%): 50% | renal vascular leakage [2]: attenuated | HR 14-day mortality ([3]; DPP3 <50 ng/mL on admission): 0.426 | HR 14-day mortality ([3]; DPP3 <40): 0.385 | HR 14-day mortality ([3]; DPP3 <60): 0.449 | HR 14-day mortality ([3]; DPP3 <70): 0.546 | HR 14-day mortality ([3]; DPP3 >50 ng/mL): 1.69 | HR 14-day mortality ([3]; DPP3 >40): 1.35 | HR 14-day mortality ([3]; DPP3 >60): 1.62 | HR 14-day mortality ([3]; DPP3 >70): 1.24 | HR 28-day all-cause mortality ([3]; baseline DPP3 threshold 50 ng/ml): 0.606 | serious adverse events [4]: no serious adverse events were observed

Clone 1967: anti-DPP3 monoclonal antibody, clone 1967 of SEQ ID No.: 37 (AK1967; Procizumab); humanized chains SEQ ID No. 47 and 48
binding specificity in lysate of blood cells (DPP3): no other unspecific binding takes place | Max. inhibition of hDPP3 [5]: 70% | mortality rate (Male Wistar rats): drastically improves; also recorded: drastically reduces | shortening fraction (Male Wistar rats): instant normalization; also recorded: drastically improves | hDPP3 binding [RLU] [6]: 113.736 RLU | heart function (shortening fraction) [7]: improved; also recorded: restores heart function | IC50 of DPP3 inhibition [8]: about 15 ng/ml
